“Also recorded” adds a separate entry of the source. Where two headings read alike, the source gives them in different places.
Experiments:
hiPSO-derived IECs [1] = assay: Cell viability of dispersed hiPSO-derived IECs (CellTiter-Glo 3D); conditions: for IEC-selective dose-dependent cytotoxicity: dose-dependent analysis, dispersed IECs from hiPSOs and hPIOs versus Caco-2 cells, Fig. 4D; for toxicity against IECs (cell viability): indicated doses, dispersed hiPSO-derived IECs, Fig. 5A, B; for effect of kinase inhibitor on dose-dependent cytotoxicity induced by YC-1: 10 µM inhibitor with 0-30 µM YC-1, 48 h, Fig. 6A-C
hiPSO-derived IECs [2] = system: hiPSO-derived IECs
hPIO-derived IECs = assay: Cell viability of dispersed hPIO-derived IECs (CellTiter-Glo 3D); conditions: 1 µM, 48 h, dispersed IECs of hPIOs, Fig. 4A
Caco-2 cells = assay: Cell viability of Caco-2 cells (CellTiter-Glo 3D), counter-assay; type: cell-based, human; conditions: dose-dependent analysis, Fig. 4D
[3] = system: caspase-8, RIP1, caspase-3, PARP, XIAP in hiPSO-derived IECs; assay: Western blot analysis of apoptotic proteins in hiPSO-derived IECs; type: cell-based, human; conditions: 0, 1, 10 µM, 14 h, Fig. 5D
Experimental: After the preparation of lysis buffer [50 mM Tris-HCl (pH 8.0), 150 mM NaCl, 1% Triton X-100, 0.5% deoxycholate, 0.1% sodium dodecyl sulfate (SDS), and a protease inhibitor cocktail (Nacalai Tesque)], cell lysates were subjected to SDS-polyacrylamide gel electrophoresis and transferred onto a polyvinylidene difluoride membrane. The membrane was blocked with Blocking One (Nacalai Tesque) for 1 h at room temperature (RT), incubated overnight at 4 °C with primary antibodies against caspase-3 (1:1000), caspase-8 (1:1000), PARP (1:1000), RIP1 (1:1000), XIAP (1:100), and β-actin (1:200), and incubated with secondary antibodies for 1 h at RT. Chemiluminescent signals were determined using Fusion Solo S (Vilber). A pre-stained ladder protein marker (XL-Ladder Broad, APRO Science) that was not visible as a chemiluminescent signal was used to determine the position of molecular weights. Full-scan images were represented in the Supplementary Information.

[4] = system: CCND1 and VIL1 mRNA in hiPSO-derived IECs; assay: qRT-PCR of mRNA levels in hiPSO-derived IECs; type: cell-based, human; conditions: 0, 1, 10 µM, 48 h, Fig. 5E
Experimental: Total cellular RNA was extracted using RNeasy Mini Kit (Qiagen). Reverse transcription was performed using a high-capacity cDNA Reverse Transcription Kit (Thermo Fisher Scientific). The mRNA levels were measured by fluorescence real-time PCR on StepOnePlus (Thermo Fisher Scientific) using PrimeTime qPCR Probes (Integrated DNA Technologies). The 18S rRNA levels were used as an internal control to normalize the mRNA levels of each gene.

CC1=C(/C=C/C(C)=C/C=C/C(C)=C/C(=O)Nc2ccc(O)cc2)C(C)(C)CCC1 [4-HPR, N-(4-hydroxyphenyl)retinamide]
IEC-selective dose-dependent cytotoxicity (hiPSO-derived IECs [1]): identified

CN(C)CC[C@H](CSc1ccccc1)Nc1ccc(S(=O)(=O)NC(=O)c2ccc(N3CCN(Cc4ccccc4-c4ccc(Cl)cc4)CC3)cc2)cc1[N+](=O)[O-] [ABT-737]
IEC-selective dose-dependent cytotoxicity (hiPSO-derived IECs [1]): identified

COC(=O)c1ccc(O)c(NC(=O)COc2ccc(C34CC5CC(CC(C5)C3)C4)cc2)c1 [LW6]
toxicity against IECs (cell viability) (hiPSO-derived IECs [1]; 48 h): little toxicity

CCCCCCCC/C=C\CCCCCCCC(=O)NCCc1ccc(O)c(O)c1 [N-oleoyldopamine]
IEC-selective dose-dependent cytotoxicity (hiPSO-derived IECs [2]): identified

COc1cccc(-c2cc(=O)c3ccccc3o2)c1N [PD98059]
inhibition of cytotoxicity of 1 µM YC-1 (hiPSO-derived IECs [1]; 0-30 µM PD98059 with 1 µM YC-1, 48 h, Fig. 6D): in a dose-dependent manner
inhibition of cytotoxicity caused by 4-HPR (hiPSO-derived IECs [1]; 10 µM PD98059 with 0-30 µM 4-HPR, 48 h, Fig. 6F): failed to inhibit
inhibition of cytotoxicity caused by ABT-737 (hiPSO-derived IECs [1]; 10 µM PD98059 with 0-30 µM ABT-737, 48 h, Fig. 6E): failed to inhibit
inhibition of cytotoxicity caused by N-oleoyldopamine (hiPSO-derived IECs [1]; 10 µM PD98059 with 0-30 µM N-oleoyldopamine, 48 h, Fig. 6H): failed to inhibit
inhibition of cytotoxicity caused by ivermectin (hiPSO-derived IECs [1]; 10 µM PD98059 with 0-30 µM ivermectin, 48 h, Fig. 6G): failed to inhibit
inhibition of YC-1-induced cytotoxicity in IECs from hiPSOs expanded with Matrigel (hiPSO-derived IECs [1]; 10 µM PD98059 with 1 µM YC-1, 48 h, Figure S5): inhibited
effect of kinase inhibitor on dose-dependent cytotoxicity induced by YC-1 (hiPSO-derived IECs [1]): substantially prevented

CS(=O)(=O)c1ccc(Oc2cc(F)cc(C#N)c2)c2c1[C@H](O)C(F)(F)C2 [PT-2385]
toxicity against IECs (cell viability) (hiPSO-derived IECs [1]; 48 h): little toxicity

C[S+]([O-])c1ccc(-c2nc(-c3ccncc3)c(-c3ccc(F)cc3)[nH]2)cc1 (stereo not drawn) [SB203580]
effect of kinase inhibitor on dose-dependent cytotoxicity induced by YC-1 (hiPSO-derived IECs [1]): almost no effect

CCc1c2c(nc3ccc(O)cc13)-c1cc3c(c(=O)n1C2)COC(=O)[C@]3(O)CC [SN-38]
cytotoxic effect (cell viability) (hiPSO-derived IECs [2]): confirmed
cytotoxic effect (cell viability) (hPIO-derived IECs): confirmed

Oc1c2ccccc2c2c3c(cccc13)N=N2 [SP600125]
effect of kinase inhibitor on dose-dependent cytotoxicity induced by YC-1 (hiPSO-derived IECs [1]): almost no effect

OCc1ccc(-c2nn(Cc3ccccc3)c3ccccc23)o1 [YC-1, 3-(5′-hydroxymethyl-2′-furyl)-1-benzyl indazole]
cytotoxicity against Caco-2 cells (Caco-2 cells): least cytotoxicity; also recorded: very little
anti-apoptotic protein XIAP level [3]: decreased
cleavage of caspase-8, RIP1, caspase-3 and PARP [3]: dose-dependently induced the cleavage
CCND1 mRNA levels [4]: downregulated
VIL1 mRNA levels [4]: downregulated
IEC-selective dose-dependent cytotoxicity (hiPSO-derived IECs [2]): identified
cytotoxicity against IECs (hiPSO-derived IECs [2]): significant cytotoxicity

COC(=O)Nc1c(N)nc(-c2nn(Cc3ccccc3F)c3ncc(F)cc23)nc1N [vericiguat]
toxicity against IECs (cell viability) (hiPSO-derived IECs [1]; 48 h): little toxicity

Source: article PMC10070462, “Drug cytotoxicity screening using human intestinal organoids propagated with extensive cost-reduction strategies” (Scientific Reports, 2023)
